Experimental data reported in patent EP2787958B1, “CHELIDONIUM MAJUS EXTRACTS AND THEIR USE IN THE TREATMENT OF SKIN DISORDERS AND PROMOTION OF SKIN REGENERATION” (priority 2011, dated 2013).
Where two headings read alike, the source gives them in different places.

Tests used:
[1] = tested on: interleukin 6 (IL-6); assay: Inflammatory cytokines in cell supernatant (Mosaic ELISA microarray): IL-6; format: cell-based, Human; conditions: for IL-6 ng/(ml* No. of cells from photo) ± SD: 24 hours; for IL-6 production (effect in words): 1-10 µM
[2] = tested on: HDF cells; assay: Evaluation of cell proliferation (counting of Sirius Red stained cells in photographs); conditions: 24 hours
[3] = tested on: Human dermal fibroblasts (HDF); assay: Mitochondrial dehydrogenase activity (WST-1 formazan assay) in HDF cells; conditions: for activity at 1 µM / activity at 10 µM: Homo sapiens, Fibroblast, read-out: % mitochondrial dehydrogenase activity ± SD; for Revitalizing agent: 24 hours
Procedure: Human dermal fibroblasts were used for assay at the 3rd T75 passage.
Mitochondrial dehydrogenase activity was measured in HDF, HEK and HUVEC cells by means of the formazan assay, using the WST-1 kit from Roche Diagnostic in accordance with the supplier's instructions. Briefly: the reagent was added (10 µl per well), the incubation was carried out for a further 2 hours or 4 hours, and, at the end of this time, the absorbance was read for 1 s at a wavelength of 450 nm in a Perkin Elmer Victor 2 Wallac microplate reader.
The activity percentage (% mitochondrial dehydrogenase activity) is defined as: % mitochondrial dehydrogenase activity = ((absorbance of treated cells - absorbance of blank) / (absorbance of control - absorbance of blank)) x 100.
The tests were performed with observations after 18 hours, seeding 8,000 cells per well, and after 42 hours, seeding 2,000 cells per well. Furthermore, in order to better analyze the dose/response curves for dihydroberberine, canadine and stylopine, curves were collected at 11 concentrations by seeding 2,000 cells per well with 46 hours incubation.
Dose/response curves are plotted at 6 concentrations. The tests were performed with observations after 24 hours, seeding 8,000 cells per well.

[4] = tested on: HDF cells; assay: Summary of uses and toxic effects deduced from the cell assays (Table 1); format: cell-based, Human; conditions: for Cytotoxic / Irritant / Anti-fibrotic (prevention of scar formation, also from acne) / Cytoprotective (antioxidant, anti-inflammatory and anti-ageing; useful also in the treatment of acne) / Wound-healing: 24 hours
How it was run: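 HDF cells exposed to test substances at a given dosage for 24 h; uses and toxicity inferred from free-radical scavenging, mitochondrial dehydrogenase activity, IL-1β/IL-6 production (basal or induced by 100 µM H2O2), proliferation under standard growth conditions, and senescence-like morphology.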

[5] = tested on: HDF cells; assay: Evaluation of cell morphology (Sirius Red stained cells, microscopy); format: cell-based, Human
Procedure: Their morphology, colour and shape have been evaluated by using the ImageJ software program.
The results of the effects on cell morphology, produced by the treatment with the test compounds for 24 hours at the concentrations specified, in HDF cells stained for collagen with PSR are shown in Figures 4a-d, 5a-d and 6a-f. These Figures allow evaluating cell morphology through light microscopy observation at magnifications of 100x, 200x and 400x for HDF cells cultured under standard growth conditions, in the presence of 100 µM H2O2 and in the presence of 34 ng/ml TGF-β1.

[6] = tested on: interleukin 1β (IL-1β); assay: Inflammatory cytokines in cell supernatant (Mosaic ELISA microarray): IL-1β; format: cell-based, Human; conditions: for IL-1β ng/(ml* No. of cells from photo) ± SD: 24 hours
[7] = Anti-radical activity (decay of the DPPH radical); format: biochemical; conditions: for Anti-radical (skin protective): 24 hours
How it was run: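 Test substance in ethanol mixed 1:1 with 200 µM DPPH (stock concentrations), in quadruplicate. Absorbance read at 530 nm after 30 min, with vitamin C and ethanol-only controls. IC50 from variable-slope Hill regression of dose-activity curves.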

[8] = tested on: collagen produced by HDF cells; assay: Quantity of collagen produced by the cells (elution of Sirius Red)
[9] = Dose 1 µm (coptisine: 1 pm [sic])

C[n+]1cc2c3c(ccc2c2ccc4cc5c(cc4c21)OCO5)OCO3 [sanguinarine]
IL-6 ng/(ml* No. of cells from photo) ± SD ([1]; 1 µM, 34 ng/ml TGF-β1): 2167±279 ng/(ml* No. of cells from photo)
IL-6 ng/(ml* No. of cells from photo) ± SD ([1]; 1 µM, 100 µM H2O2): 2374±264 ng/(ml* No. of cells from photo)
IL-6 ng/(ml* No. of cells from photo) ± SD ([1]; 1 µM, Standard conditions): 470±32 ng/(ml* No. of cells from photo)
IL-6 ng/(ml* No. of cells from photo) ± SD ([1]; 10 µM, 34 ng/ml TGF-β1): 56600±9000 ng/(ml* No. of cells from photo)
IL-6 ng/(ml* No. of cells from photo) ± SD ([1]; 10 µM, 100 µM H2O2): 66300±5000 ng/(ml* No. of cells from photo)
IL-6 ng/(ml* No. of cells from photo) ± SD ([1]; 10 µM, Standard conditions): 17786±27 ng/(ml* No. of cells from photo)
No. of cells from photo ± SD ([2]; 1 µM, 34 ng/ml TGF-β1): 86±7
No. of cells from photo ± SD ([2]; 1 µM, 100 µM H2O2): 110±18
No. of cells from photo ± SD ([2]; 1 µM, Standard conditions): 30±9
No. of cells from photo ± SD ([2]; 10 µM, 34 ng/ml TGF-β1): 1±0
No. of cells from photo ± SD ([2]; 10 µM, 100 µM H2O2): 1±0
No. of cells from photo ± SD ([2]; 10 µM, Standard conditions): 1±0
concentrations above which marked inhibition of mitochondrial dehydrogenase activity is caused ([3]; 18 h and 42 h): higher than 1 µM
activity at 1 µM ([3]; 18 h): 83.3 ± 6.83%
activity at 10 µM ([3]; 18 h): -1.57 ± 1.65%
activity at 1 µM ([3]; 42 h): -2.8 ± 3.67%
activity at 10 µM ([3]; 42 h): -16.6 ± 2.55%
Cytotoxic [4, 9]: Yes (senescent morph., ↓dehydrogenase)
Irritant [4, 9]: Yes (↑IL-6, ↑IL-1β)
Cytotoxic ([4]; Dose 10 µm): Yes (cell death, ↓dehydrogenase)
Irritant ([4]; Dose 10 µm): Yes (↑IL-6, ↑IL-1β)
concentrations at which toxic (cytotoxic and irritant) effects are shown ([4]; exposure for 24 hours): greater than or equal to 1 µM
cell morphology ([5]; 1 µM): senescent morphology
cell morphology ([5]; 10 µM): complete absence of cells
IL-1β ng/(ml* No. of cells from photo) ± SD ([6]; 1 µM, 34 ng/ml TGF-β1): 297±13 ng/(ml* No. of cells from photo)
IL-1β ng/(ml* No. of cells from photo) ± SD ([6]; 1 µM, 100 µM H2O2): 253±9 ng/(ml* No. of cells from photo)
IL-1β ng/(ml* No. of cells from photo) ± SD ([6]; 1 µM, Standard conditions): 75±1 ng/(ml* No. of cells from photo)
IL-1β ng/(ml* No. of cells from photo) ± SD ([6]; 10 µM, 34 ng/ml TGF-β1): 16400±5000 ng/(ml* No. of cells from photo)
IL-1β ng/(ml* No. of cells from photo) ± SD ([6]; 10 µM, 100 µM H2O2): 18400±2800 ng/(ml* No. of cells from photo)
IL-1β ng/(ml* No. of cells from photo) ± SD ([6]; 10 µM, Standard conditions): 4535±81 ng/(ml* No. of cells from photo)

COc1ccc2c(c1OC)CN1CCc3cc4c(cc3[C@@H]1C2)OCO4 [canadine]
IL-6 ng/(ml* No. of cells from photo) ± SD ([1]; 1 µM, 34 ng/ml TGF-β1): 451±121 ng/(ml* No. of cells from photo)
IL-6 ng/(ml* No. of cells from photo) ± SD ([1]; 1 µM, 100 µM H2O2): 584±19 ng/(ml* No. of cells from photo)
IL-6 ng/(ml* No. of cells from photo) ± SD ([1]; 1 µM, Standard conditions): 405±8 ng/(ml* No. of cells from photo)
IL-6 ng/(ml* No. of cells from photo) ± SD ([1]; 10 µM, 34 ng/ml TGF-β1): 724±43 ng/(ml* No. of cells from photo)
IL-6 ng/(ml* No. of cells from photo) ± SD ([1]; 10 µM, 100 µM H2O2): 718±63 ng/(ml* No. of cells from photo)
IL-6 ng/(ml* No. of cells from photo) ± SD ([1]; 10 µM, Standard conditions): 508±43 ng/(ml* No. of cells from photo)
IL-6 production (effect in words) ([1]; 34 ng/ml TGF-β1): antagonizes the production of IL-6
IL-6 production (effect in words) ([1]; 100 µM H2O2): antagonizes the production of IL-6
IL-6 production (effect in words) ([1]; standard conditions): inhibits the production of IL-6
No. of cells from photo ± SD ([2]; 1 µM, 34 ng/ml TGF-β1): 206±40
No. of cells from photo ± SD ([2]; 1 µM, 100 µM H2O2): 253±32
No. of cells from photo ± SD ([2]; 1 µM, Standard conditions): 207±12
No. of cells from photo ± SD ([2]; 10 µM, 34 ng/ml TGF-β1): 138±3
No. of cells from photo ± SD ([2]; 10 µM, 100 µM H2O2): 188±25
No. of cells from photo ± SD ([2]; 10 µM, Standard conditions): 138±5
concentrations below which no significant effects on mitochondrial dehydrogenase activity are shown [3]: below 0.1 µM
Revitalizing agent [3, 9]: Yes
Revitalizing agent ([3]; Dose 10 µm): Yes
activity at 1 µM ([3]; 18 h): 127 ± 3.64%
activity at 10 µM ([3]; 18 h): 130 ± 32.4%
activity at 1 µM ([3]; 42 h): 101 ± 10.6%
activity at 10 µM ([3]; 42 h): 124 ± 5.34%
activity at 1 µM ([3]; 46 h): 106 ± 5.25%
activity at 10 µM ([3]; 46 h): 130 ± 11.1%
mitochondrial dehydrogenase activity (effect in words) ([3]; between 0.1 and 100 µM, exposure time 18 and 42 h): tendency to increase in a dose-dependent manner
mitochondrial dehydrogenase activity (effect in words) ([3]; fibroblast cells, higher doses): inhibit mitochondrial dehydrogenase activity
mitochondrial dehydrogenase activity (effect in words) ([3]; fibroblast cells, low dosage): stimulate mitochondrial dehydrogenase activity
Anti-fibrotic (prevention of scar formation, also from acne) [4, 9]: Yes (↓collagen, ↓IL-6, ↓IL-1β)
Cytoprotective (antioxidant, anti-inflammatory and anti-ageing; useful also in the treatment of acne) [4, 9]: Yes (↓IL-6, ↓IL-1β)
Cytotoxic [4, 9]: No
Irritant [4, 9]: No
Wound-healing [4, 9]: Yes (↓IL-1β)
Anti-fibrotic (prevention of scar formation, also from acne) ([4]; Dose 10 µm): No
Cytoprotective (antioxidant, anti-inflammatory and anti-ageing; useful also in the treatment of acne) ([4]; Dose 10 µm): No
Cytotoxic ([4]; Dose 10 µm): No
Irritant ([4]; Dose 10 µm): Yes (↓IL-1β)
Wound-healing ([4]; Dose 10 µm): No
concentrations at which no toxic (cytotoxic and irritant) effects are shown ([4]; exposure for 24 hours): less than or equal to 1 µM
IL-1β production (effect in words) ([6]; 1 µM, 34 ng/ml TGF-β1): antagonizes the production of IL-1β
IL-1β ng/(ml* No. of cells from photo) ± SD ([6]; 1 µM, 34 ng/ml TGF-β1): 116±19 ng/(ml* No. of cells from photo)
IL-1β production (effect in words) ([6]; 1 µM, 100 µM H2O2): antagonizes the production of IL-1β
IL-1β ng/(ml* No. of cells from photo) ± SD ([6]; 1 µM, 100 µM H2O2): 90±3 ng/(ml* No. of cells from photo)
IL-1β ng/(ml* No. of cells from photo) ± SD ([6]; 1 µM, Standard conditions): 81±2 ng/(ml* No. of cells from photo)
IL-1β production (effect in words) ([6]; 1 µM, standard conditions): inhibits the production of IL-1β
IL-1β production (effect in words) ([6]; 10 µM, 34 ng/ml TGF-β1): antagonizes the production of IL-1β
IL-1β ng/(ml* No. of cells from photo) ± SD ([6]; 10 µM, 34 ng/ml TGF-β1): 173±14 ng/(ml* No. of cells from photo)
IL-1β production (effect in words) ([6]; 10 µM, 100 µM H2O2): antagonizes the production of IL-1β
IL-1β ng/(ml* No. of cells from photo) ± SD ([6]; 10 µM, 100 µM H2O2): 132±138 ng/(ml* No. of cells from photo)
IL-1β ng/(ml* No. of cells from photo) ± SD ([6]; 10 µM, Standard conditions): 109±1 ng/(ml* No. of cells from photo)
IL-1β production (effect in words) ([6]; 10 µM, standard conditions): stimulates the production of IL-1β
% DPPH activity ([7]; 1 mM, 30 minutes): 103%
Anti-radical (skin protective) [7, 9]: No
Anti-radical (skin protective) ([7]; Dose 10 µm): No
collagen production (effect in words) ([8]; 1 µM, standard conditions): no evident effect on the modulation of collagen production
collagen production (effect in words) ([8]; 10 µM, standard conditions): collagen production stimulation effect
collagen production (effect in words) ([8]; 1-10 µM (1 µM and 10 µM), 34 ng/ml TGF-β1): antagonizes the stimulation of collagen induced by 34 ng/ml TGF-β1
collagen production (effect in words) ([8]; 1-10 µM (1 µM and 10 µM), 100 µM H2O2): inhibits collagen production
